Paper PMC12774368, “Cyclic-di-GMP controls Type III effector export and symptom development in Pseudomonas syringae infections via the export ATPase HrcN” (PLOS Pathogens, 2025)

Biological target: T1, HrcN (Δ1-18 WT HrcN) (Pseudomonas syringae group genomosp. 3, UniProt Q887B5)
T1 construct: gene sctN; N-terminal residues 1-18 removed, His6-tagged (tag not reported cut), pETM11, expressed in E. coli BL21(DE3) pLysS, HisTrap purified
Format: binding
Conditions: 1 mM unlabelled competitor, 1.25 µM HrcN, 0.6 µM 2'-Fluo-AHC-c-diGMP; pH 7.5, 10 mM MgCl2

Nc1nc2c(ncn2[C@@H]2O[C@@H]3COP(=O)(O)O[C@H]4[C@@H](O)[C@H](n5cnc6c(=O)[nH]c(N)nc65)O[C@@H]4COP(=O)(O)O[C@H]3[C@H]2O)c(=O)[nH]1 [cyclic-di-GMP]
competition DRaCALA against fluorescent c-di-GMP: fluorescent cdG binding could be disrupted by the addition of unlabelled cdG
